Reference: patent US7790742B2, “Substituted 4-phenyltetrahydroisoquinolines, pharmaceutical compositions thereof, methods for their preparation and therapeutic use” (Sanofi-Aventis Deutschland GmbH, priority 2004, dated 2010)

Assays:
[1] = molecular target: NHE3 of the rat (Rattus norvegicus, UniProt P26433); conditions: read-out: half-maximum inhibitory concentration (IC50); cited from earlier work
[2] = molecular target: T1, NHE3 (Homo sapiens, UniProt P48764); conditions: indirect mechanism; cited from earlier work
T1 construct: host or cells: cells, not specified
T1 sequence (P48764 26-834): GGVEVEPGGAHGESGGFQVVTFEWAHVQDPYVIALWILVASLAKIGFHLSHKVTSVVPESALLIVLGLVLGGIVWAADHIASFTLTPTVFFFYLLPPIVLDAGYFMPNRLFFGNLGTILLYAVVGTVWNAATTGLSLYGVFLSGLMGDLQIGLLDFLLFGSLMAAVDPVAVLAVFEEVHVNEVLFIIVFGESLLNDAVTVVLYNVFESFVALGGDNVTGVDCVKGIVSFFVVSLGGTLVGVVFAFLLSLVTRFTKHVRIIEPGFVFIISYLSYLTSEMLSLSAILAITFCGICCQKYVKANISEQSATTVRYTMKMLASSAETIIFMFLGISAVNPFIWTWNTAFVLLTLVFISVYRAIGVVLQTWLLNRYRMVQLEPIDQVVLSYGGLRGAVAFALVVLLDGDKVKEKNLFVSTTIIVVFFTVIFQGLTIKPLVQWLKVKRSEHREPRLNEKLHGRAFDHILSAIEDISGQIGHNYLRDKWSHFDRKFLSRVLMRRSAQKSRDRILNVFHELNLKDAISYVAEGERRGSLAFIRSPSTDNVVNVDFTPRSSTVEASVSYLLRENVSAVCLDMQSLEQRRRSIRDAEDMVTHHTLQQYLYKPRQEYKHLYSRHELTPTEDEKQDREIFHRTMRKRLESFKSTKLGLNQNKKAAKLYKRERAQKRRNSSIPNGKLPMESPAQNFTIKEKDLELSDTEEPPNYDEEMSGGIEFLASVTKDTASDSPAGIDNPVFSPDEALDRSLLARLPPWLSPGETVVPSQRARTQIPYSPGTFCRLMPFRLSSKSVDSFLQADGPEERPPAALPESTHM

[3] = molecular target: T2, NHE5 (Homo sapiens, UniProt Q14940); assay: Tiamenidine inhibitory action on NHE subtypes: NHE5; format: cell-based; conditions: therapeutically utilizable concentration range
T2 sequence (Q14940 1-896): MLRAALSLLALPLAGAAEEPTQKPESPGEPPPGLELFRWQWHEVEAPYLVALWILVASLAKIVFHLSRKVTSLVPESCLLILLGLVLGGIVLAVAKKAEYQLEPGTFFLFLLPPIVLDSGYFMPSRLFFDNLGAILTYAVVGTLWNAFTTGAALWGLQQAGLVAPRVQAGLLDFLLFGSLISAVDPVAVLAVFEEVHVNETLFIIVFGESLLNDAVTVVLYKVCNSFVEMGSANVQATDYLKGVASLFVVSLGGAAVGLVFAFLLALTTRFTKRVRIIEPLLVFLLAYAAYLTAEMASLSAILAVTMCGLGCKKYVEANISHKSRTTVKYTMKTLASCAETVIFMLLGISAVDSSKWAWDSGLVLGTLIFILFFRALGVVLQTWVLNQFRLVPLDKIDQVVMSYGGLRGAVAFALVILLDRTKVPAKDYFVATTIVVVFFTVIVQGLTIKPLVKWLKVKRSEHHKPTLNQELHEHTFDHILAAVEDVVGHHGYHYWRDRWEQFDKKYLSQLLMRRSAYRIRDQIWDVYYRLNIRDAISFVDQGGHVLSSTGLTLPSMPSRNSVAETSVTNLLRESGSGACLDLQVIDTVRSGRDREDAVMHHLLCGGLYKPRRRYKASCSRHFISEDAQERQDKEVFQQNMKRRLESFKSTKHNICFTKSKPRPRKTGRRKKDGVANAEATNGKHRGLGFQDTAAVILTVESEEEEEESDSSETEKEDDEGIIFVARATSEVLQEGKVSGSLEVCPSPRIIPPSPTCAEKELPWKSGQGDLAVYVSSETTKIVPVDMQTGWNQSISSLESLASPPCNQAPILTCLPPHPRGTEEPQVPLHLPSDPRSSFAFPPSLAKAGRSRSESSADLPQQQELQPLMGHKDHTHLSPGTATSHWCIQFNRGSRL
Source text: (§1) Compounds which are similar to clonidine but have a thiophene instead of the phenyl ring are disclosed in DE1941761. The structures of formula I disclosed and claimed herein differ from existing compounds by the fusing of a thieno-substituent to the imidazole moiety of the formula I or II. This distinction allows the above-described clonidine-like undesired cardiovascular effects mediated by alpha-adrenoreceptor action to be eliminated. […] The application WO03053434 proposes NHE3 inhibitors of the imidazoline type, the patent application WO 03101984 of the thiophene type and the application DE10304374 of the imidazole type.

[4] = molecular target: T3, NHE2 (Homo sapiens, UniProt Q9UBY0); assay: Tiamenidine inhibitory action on NHE subtypes: NHE2; format: cell-based; conditions: therapeutically utilizable concentration range
T3 sequence (Q9UBY0 1-812): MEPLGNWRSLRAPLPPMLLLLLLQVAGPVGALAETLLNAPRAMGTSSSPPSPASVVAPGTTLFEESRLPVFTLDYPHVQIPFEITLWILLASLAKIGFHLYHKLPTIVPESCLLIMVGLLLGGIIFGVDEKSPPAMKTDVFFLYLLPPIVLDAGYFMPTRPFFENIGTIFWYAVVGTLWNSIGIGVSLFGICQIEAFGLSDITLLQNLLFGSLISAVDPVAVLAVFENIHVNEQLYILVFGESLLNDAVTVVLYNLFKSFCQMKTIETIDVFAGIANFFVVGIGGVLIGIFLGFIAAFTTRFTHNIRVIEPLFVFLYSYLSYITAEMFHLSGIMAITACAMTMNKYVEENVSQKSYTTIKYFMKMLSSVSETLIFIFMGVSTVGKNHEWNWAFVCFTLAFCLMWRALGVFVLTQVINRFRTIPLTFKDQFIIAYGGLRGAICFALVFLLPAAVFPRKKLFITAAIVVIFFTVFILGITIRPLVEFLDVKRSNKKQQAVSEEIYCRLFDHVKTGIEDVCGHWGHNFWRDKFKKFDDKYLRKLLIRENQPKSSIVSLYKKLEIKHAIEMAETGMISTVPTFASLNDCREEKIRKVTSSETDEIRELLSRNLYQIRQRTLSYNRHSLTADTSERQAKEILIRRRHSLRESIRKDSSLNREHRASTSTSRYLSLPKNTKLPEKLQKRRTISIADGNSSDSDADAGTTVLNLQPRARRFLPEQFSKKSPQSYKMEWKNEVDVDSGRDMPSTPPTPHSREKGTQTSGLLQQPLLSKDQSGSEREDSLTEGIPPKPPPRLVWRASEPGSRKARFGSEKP
Source text: as §1

[5] = molecular target: T1, NHE3; assay: Tiamenidine inhibitory action on NHE subtypes: NHE3; format: cell-based; conditions: therapeutically utilizable concentration range
Source text: as §1

[6] = molecular target: NHE1 (Homo sapiens, UniProt P19634); assay: Tiamenidine inhibitory action on NHE subtypes: NHE1; format: cell-based; conditions: therapeutically utilizable concentration range
Source text: as §1

Sequence of NHE1 (P19634 whole entry, species assumed): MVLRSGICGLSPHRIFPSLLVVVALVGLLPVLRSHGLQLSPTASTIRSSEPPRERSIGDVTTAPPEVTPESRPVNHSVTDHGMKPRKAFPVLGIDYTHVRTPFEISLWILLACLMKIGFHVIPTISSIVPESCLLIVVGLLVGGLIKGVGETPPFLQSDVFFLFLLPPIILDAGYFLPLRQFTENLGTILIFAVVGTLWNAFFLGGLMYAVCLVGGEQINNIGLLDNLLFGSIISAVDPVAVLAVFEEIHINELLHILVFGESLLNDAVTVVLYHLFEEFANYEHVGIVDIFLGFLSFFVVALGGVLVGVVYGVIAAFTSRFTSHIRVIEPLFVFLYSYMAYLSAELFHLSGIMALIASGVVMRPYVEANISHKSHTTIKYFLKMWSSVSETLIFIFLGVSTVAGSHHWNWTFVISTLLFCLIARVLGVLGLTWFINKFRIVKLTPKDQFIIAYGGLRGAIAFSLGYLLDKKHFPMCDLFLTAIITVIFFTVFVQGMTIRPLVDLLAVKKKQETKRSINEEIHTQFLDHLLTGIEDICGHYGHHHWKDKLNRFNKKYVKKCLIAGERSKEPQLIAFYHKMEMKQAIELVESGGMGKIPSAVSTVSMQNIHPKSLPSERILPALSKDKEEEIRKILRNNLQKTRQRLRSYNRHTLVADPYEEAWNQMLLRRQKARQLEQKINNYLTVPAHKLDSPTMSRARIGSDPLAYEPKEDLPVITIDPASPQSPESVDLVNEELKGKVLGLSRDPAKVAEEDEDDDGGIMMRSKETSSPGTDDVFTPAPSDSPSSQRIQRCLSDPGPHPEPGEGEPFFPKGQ
Sequence of NHE3 of the rat (P26433 29-831): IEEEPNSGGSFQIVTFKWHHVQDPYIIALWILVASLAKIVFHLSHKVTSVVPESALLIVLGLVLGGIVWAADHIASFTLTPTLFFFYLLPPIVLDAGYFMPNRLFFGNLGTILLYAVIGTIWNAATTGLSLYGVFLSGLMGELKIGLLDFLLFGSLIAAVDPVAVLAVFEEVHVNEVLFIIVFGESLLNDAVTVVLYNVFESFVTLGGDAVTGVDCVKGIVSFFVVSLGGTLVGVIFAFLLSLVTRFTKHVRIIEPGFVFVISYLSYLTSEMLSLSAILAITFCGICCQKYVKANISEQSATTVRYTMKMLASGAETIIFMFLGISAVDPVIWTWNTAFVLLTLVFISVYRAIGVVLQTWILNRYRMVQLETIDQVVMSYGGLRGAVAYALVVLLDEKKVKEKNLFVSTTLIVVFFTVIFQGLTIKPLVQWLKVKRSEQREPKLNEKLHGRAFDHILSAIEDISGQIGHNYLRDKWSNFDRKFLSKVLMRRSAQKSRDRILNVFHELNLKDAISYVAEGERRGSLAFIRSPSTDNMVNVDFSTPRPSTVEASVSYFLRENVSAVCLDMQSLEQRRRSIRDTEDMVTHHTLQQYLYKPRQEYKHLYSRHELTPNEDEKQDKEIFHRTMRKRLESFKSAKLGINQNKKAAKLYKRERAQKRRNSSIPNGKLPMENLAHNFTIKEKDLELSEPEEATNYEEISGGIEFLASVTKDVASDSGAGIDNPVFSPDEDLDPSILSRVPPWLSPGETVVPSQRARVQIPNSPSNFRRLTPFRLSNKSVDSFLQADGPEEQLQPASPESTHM

Clc1cccc(Cl)c1N=C1NCCN1 [Clonidine]
IC50 [1]: 620 µM

CC(C)[C@@H](CC[C@@H](C)[C@H]1CC[C@H]2[C@@H]3[C@H](O)C[C@H]4C[C@@H](NCCCNCCCCN)CC[C@]4(C)[C@H]3CC[C@]12C)OS(=O)(=O)O [squalamine]
time to maximum strength of action [2]: after one hour

Cc1csc(Cl)c1NC1=NCCN1 [tiamenidine]
inhibitory action on NHE5 [3]: no relevant inhibitory actions | inhibitory action on NHE2 [4]: no relevant inhibitory actions | inhibitory action on NHE3 [5]: no relevant inhibitory actions | inhibitory action on NHE1 [6]: no relevant inhibitory actions
